{
  "source": "patent US10294496B2",
  "about": "“Methods for biosynthesizing 1,3 butadiene” (INVISTA North America S.á r.l., priority 2013, dated 2019)",
  "target": "T1, linalool dehydratase (EC 4.2.1.127) (Castellaniella defragrans, UniProt E1XUJ2)",
  "T1 construct": "His tag; made in house; host or cells: E. coli BL21 (pARZ4 vector)",
  "T1 sequence (E1XUJ2 27-397)": "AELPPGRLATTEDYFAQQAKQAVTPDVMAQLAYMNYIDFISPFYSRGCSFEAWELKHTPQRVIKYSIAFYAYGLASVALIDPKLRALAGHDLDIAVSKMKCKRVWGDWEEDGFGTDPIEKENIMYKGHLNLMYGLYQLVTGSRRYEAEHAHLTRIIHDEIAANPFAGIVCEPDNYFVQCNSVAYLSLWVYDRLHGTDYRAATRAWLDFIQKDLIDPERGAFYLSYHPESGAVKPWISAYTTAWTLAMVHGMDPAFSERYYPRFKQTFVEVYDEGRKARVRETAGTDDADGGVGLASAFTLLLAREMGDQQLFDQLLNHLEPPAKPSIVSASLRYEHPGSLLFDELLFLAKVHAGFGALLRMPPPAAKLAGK",
  "experiment": "Enzyme activity of linalool dehydratase using 3-buten-2-ol as substrate (headspace GC-MS for butadiene)",
  "assay_type": "biochemical",
  "details": "11 mM 3-buten-2-ol, 25° C., purified his-tagged enzyme, butadiene in headspace by GC-MS",
  "excerpt": "The his-tagged linalool dehydratase (EC 4.2.1.127) from Castellaniella defragrans was cloned into a pARZ4 vector and transformed into E. coli BL21. The resulting strain was cultivated and induced using […] (isopropylthio-β-galactoside) in a shake flask culture containing Luria Broth media and kanamycin selection pressure.\nThe cells from each of the induced shake flask cultures were harvested and pelleted by centrifugation. The cell pellet was resuspended and the cells were lysed. The cell debris was separated from the supernatant via centrifugation and filtered using a 0.2 μm filter. The enzyme was purified from the filtered supernatant using Ni-affinity chromatography and concentrated and buffer exchanged using a Vivaspin 15R Centrifugal Concentrator and Hi-trap Desalting column into 80 mM Tris buffer (pH=9).\nNon-native enzyme activity assays were undertaken in a buffer containing 11 mM of 3-buten-2-ol at 25° C. The activity assays were undertaken in 2 mL septum-sealed vials, thereby allowing butadiene accumulation in the headspace. The reaction was initiated by adding 1 mL of purified enzyme to the assay buffer containing the substrate.\nThe headspace was sampled for butadiene analysis by GC-MS (gas chromatography-mass spectrometry). […] Also, the ion peak areas were above the limit of quantitation for the GC-MS.",
  "data": [
    {"smiles": "C=CC(C)O", "note": "(stereo not shown) [3-buten-2-ol]", "values": [
      {"measurement": "non-native enzyme activity: substrate acceptance, synthesis of butadiene", "result": "accepts 3-buten-2-ol as a substrate"}
    ]}
  ]
}
